What is called pIC50 is the negative decadic logarithm of the IC50, by convention in mol/L. Higher therefore signals a small IC50. Broadly, the melting point is the temperature of the solid-liquid transition.

pIC50: −log10 of the molar value. Where only a bound is given, the exact number is not on record here.

The values below come from patent US6770669B1, “Amidine derivatives, preparation and use thereof as medicines” (Societe de Conseils de Recherches et d'Applications …, priority 1999, dated 2004).

Data set [1] deals with T1, neuronal constitutive NO synthase (Rattus norvegicus, UniProt P29476).
T1 construct: The reaction is initiated by adding 50 μl of homogenate; from tissue; host or cells: cerebellum of Sprague-Dawley rats (homogenate centrifuged at 21000 g)
Briefly: Effects on neuronal constitutive NO synthase of a rat's cerebellum ([3H]L-arginine to [3H]L-citrulline conversion). The class given is biochemical. As to conditions: rat cerebellum homogenate; conversion of [3H]L-arginine to [3H]L-citrulline. As for the experimental part:
Study of the Effects on Neuronal Constitutive NO Synthase of a Rat's Cerebellum
The inhibitory activity of the products of the invention is determined by measuring their effects on the conversion by NO synthase of [^3H]L-arginine to [^3H]L-citrulline according to the modified method of Bredt and Snyder (Proc. Natl. Acad. Sci. USA. (1990) 87: 682-685). The cerebellums of Sprague-Dawley rats (300 g—Charles River) are rapidly removed, dissected at 4° C. and homogenized in a volume of extraction buffer (HEPES 50 mM, EDTA 1 mM, pH 7.4, pepstatin A […], leupeptin […]). The homogenates are then centrifuged at 21000 g for 15 min at 4° C. Dosage is carried out in glass test tubes in which 100 μl of incubation buffer containing 100 mM of HEPES (pH 7.4), 2 mM of EDTA, 2.5 mM of CaCl2, 2 mM of dithiotreitol, 2 mM of reduced NADPH and 10 μg/ml of calmodulin are distributed. 25 μl of a solution containing 100 nM of [^3H]L-arginine (Specific activity: 56.4 Ci/mmole, Amersham) and 40 μM of non-radioactive L-arginine is added. The reaction is initiated by adding 50 μl of homogenate, the final volume being 200 μl (the missing 25 μl are either water or the tested product). […] After passing the samples through a 1 ml column of DOWEX resin, the radioactivity is quantified by a liquid scintillation spectrometer.

Another data set concerns the target T2, MAO-B (Rattus norvegicus, UniProt P19643).
T2 construct: 100 μl of the mitochondrial preparation (2 mg protein/ml) is incubated for 1 hour at 37° C; from tissue; host or cells: rat cortex, mitochondrial fraction
T2 sequence (P19643 1-520): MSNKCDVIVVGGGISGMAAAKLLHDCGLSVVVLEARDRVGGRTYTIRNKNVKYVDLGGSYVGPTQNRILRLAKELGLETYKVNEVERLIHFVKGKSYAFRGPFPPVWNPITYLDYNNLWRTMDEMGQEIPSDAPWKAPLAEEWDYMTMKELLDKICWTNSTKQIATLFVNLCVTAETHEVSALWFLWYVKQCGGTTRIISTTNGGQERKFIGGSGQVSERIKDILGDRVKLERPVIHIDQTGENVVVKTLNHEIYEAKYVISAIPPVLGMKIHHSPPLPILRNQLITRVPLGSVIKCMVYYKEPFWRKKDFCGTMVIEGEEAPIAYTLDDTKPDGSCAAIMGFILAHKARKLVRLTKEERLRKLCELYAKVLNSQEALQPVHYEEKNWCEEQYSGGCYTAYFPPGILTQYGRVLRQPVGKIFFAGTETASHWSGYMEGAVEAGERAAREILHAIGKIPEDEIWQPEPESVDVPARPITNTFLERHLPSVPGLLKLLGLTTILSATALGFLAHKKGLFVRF
Briefly: Effects on the bond of a specific ligand of MAO-B, [3H]Ro 19-6327 (rat cortex mitochondrial preparation). The class given is binding. The following applies: [3H]Ro 19-6327 33 nM, 1 hour at 37° C. As for the experimental part:
Study of the Effects on the Bond of a Specific Ligand of MAO-B, [^3H]Ro 19-6327
The inhibitory activity of the products of the invention is determined by measuring their effects on the bond of a specific ligand of MAO-B, [^3H]Ro 19-6327.
A) Mitochondrial Preparation of the Cortex of Rats
The mitochondrial preparation of the cortex of rats is carried out according to the method described in Cesura A M, Galva M D, Imhof R and Da Prada M, J. Neurochem. 48 (1987), 170-176. The rats are decapitated and their cortex is removed, homogenized in 9 volumes of a 0.32 M sucrose buffer, buffered to pH 7.4 with 5 mM of HEPES, then centrifuged at 800 g for 20 minutes. The supernatants are recovered and the pellets are washed twice with the 0.32 M sucrose buffer as previously. The collected supernatants are centrifuged at 10000 g for 20 minutes. […] The proteinic content of the preparation is determined by the Lowry method.
100 μl of the mitochondrial preparation (2 mg protein/ml) is incubated for 1 hour at 37° C. in an Eppendorf tube, in the presence of 100 μl of [^3H]Ro 19-6327 (33 nM, final concentration) and 100 μl of Tris buffer containing or not containing the inhibitors. […] The radioactivity is determined by counting the samples using liquid scintillation.

The molecule `C#CCN(C)Cc1ccc(N=C(N)c2cccs2)cc1` [Example 1, N′-(4-{[methyl(2-propynyl)amino]methyl}phenyl)-2-thiophenecarboximidamide] registered a melting point of 109 to 110 °C. The molecule further showed a pIC50 in data set [1] of more than 5.46. Further, on MAO-B, the pIC50 was more than 4.60.
